Patent US20100234231A1, “YIELD ENHANCING AGENT FOR HARVESTING PART OF CROP” (priority 2009, published 2010)

Key:
Type in all cases: in vivo
[1] = tested on: rice (variety: Koshihikari); assay: Effect of enhancing yield of rice (pot test, treatment after ear emergence); settings: for Number of ears per stock / Number of rice grains per ear / Weight of thousand grains / Ripening rate: ALA hydrochloride 0.1 g/10 a foliage x3, prohexadione calcium salt 0.4 g/10 a, 3 days after ear emergence; for Ripening rate: number of rice grains having specific gravity of 1.06 or more/number of total rice grains x100, in %; for Yield of rice per stock: product of ears per stock, grains per ear, ripening rate and thousand-grain weight, ALA hydrochloride 0.1 g/10 a, prohexadione calcium salt 0.4 g/10 a
Protocol: Seeds of rice (variety: Koshihikari) were sterilized with 70% ethanol, and rice seeds heavier than a specific gravity of 1.13 were screened by brine washing. Water absorption for one night at 30° C. and germination for one night were carried out, and then the seeds were sowed in a seedling box (4/11). A certain amount of kuroboku soil was placed in a 15-L Polybucket (1/17500×10 a), a synthetic fertilizer was mixed therein as a basal fertilizer such that N-P-K=5-5-5 kg/10 a, and water was drawn in to a water depth of 3 cm. Grown seedlings were planted at 3 stocks per bucket (5/15). […] Furthermore, 5-aminolevulic acid (ALA) hydrochloride was used for a foliage treatment for three times (8/14, 8/30, 9/10) at 0.1 […]). Four buckets were used for one test zone, and the buckets were placed randomly so as not to be affected by the place.

barley = assay: Effect of enhancing yield of barley grains (pot test, treatment around ear emergence)
Protocol: A certain amount of kuroboku soil was placed in a 15-L Polybucket (1/17500×10 a), a liquid fertilizer Hyponica was applied as a basal fertilizer such that N-P-K=5.0-2.8-8.5 kg/10 a, and barley was sowed (11/3). Five stocks of seedlings were planted per bucket, and in the middle of growth, thinning was performed to make the test zone uniform so that there would be 3 stocks per bucket. Five days before ear emergence (4/15), prohexadione calcium salt was used as an gibberellin biosynthesis inhibitor to treat at 7.0, 3.5 […]) (4/10). Furthermore, a treatment with 5-aminolevulic acid hydrochloride was performed at 0.15 […]) under the conditions of performing a foliage treatment each time at the respective times of before (4/3), simultaneously with (4/10) and after (5/8) the treatment with prohexadione calcium salt. […] Four buckets were used per test zone.

Turnip (variety: Honami) = assay: Comparative Example: combined treatment during seedling growth, turnip yield (field test); settings: ALA hydrochloride 0.2 g/10a; prohexadione calcium salt 20 g/10a; 7 days before initiation of enlargement (seedling growth)
Protocol: Turnip (variety: […] At this time, a synthetic fertilizer was applied as a basal fertilizer such that N-P-K=5-5-5 kg/10 a. Four stocks were planted per test zone, and 4 test zones were set up randomly for one condition so as not to be affected by the place. […] After harvesting (11/12), the weights of the aerial part and the terrestrial part of the plant body were measured.

[2] = tested on: radish (variety: Red Chime); assay: Effect of enhancing yield of radish hypocotyl (pot test); settings: ALA hydrochloride 0.1 g/10a foliage 6 days after prohexadione; prohexadione calcium salt 15 g/10a, 10 days after initiation of hypocotyl enlargement
Protocol: A certain amount of kuroboku soil was placed in a No. 6 pot (1/75000×10 a), and radish (variety: Red Chime) was planted (5/4). A liquid fertilizer Hyponica was applied as a basal fertilizer such that N-P-K=5.0-2.8-8.5 kg/10 a (5/8). Five stocks were planted per pot, and in the middle of growth, thinning was performed to make the test zone uniform so that there would be 3 stocks per pot. Ten days after the initiation of hypocotyl enlargement, prohexadione calcium salt was used as an gibberellin biosynthesis inhibitor to treat at 15 […]) (5/27). Furthermore, a treatment with 5-aminolevulic acid hydrochloride was performed at 0.1 […]) under the conditions of performing a foliage treatment (6/2) six days after the treatment with prohexadione calcium salt. […] Seven pots were used per test zone.

[3] = tested on: sunflower (variety: Hybrid Sunflower); assay: Effect of enhancing yield of sunflower seeds (field test, treatment after flowering); settings: ALA hydrochloride 0.2 g/10a foliage x2, uniconazole P 0.3 g/10a, 7 days after flowering; for Number of filled seeds / Weight of filled seeds: empty seeds excluded
Protocol: A test field (red soil) was divided into 0.7 m^2 per compartment, and sunflower (variety: Hybrid Sunflower) was planted (6/9). A synthetic fertilizer was applied as a basal fertilizer such that N-P-K=5.0-5.0-5.0 kg/10 a (6/9). Four stocks were planted per test zone, and in the middle of growth, thinning was performed to make the test zone uniform so that there would be two stocks per test zone. Seven days after flowering, a Sumiseven P liquid preparation (containing 0.025% of uniconazole P) as an gibberellin biosynthesis inhibitor was used for treatment such that the amount of treatment of uniconazole P would be 0.3 […]) (8/20). Furthermore, a foliage treatment with 5-aminolevulic acid hydrochloride was performed at 0.2 […]), two times in total at the date of uniconazole P treatment (8/20) and 2 weeks after the uniconazole P treatment (9/3). As additional fertilization, a synthetic fertilizer was applied such that N-P-K=3.0-3.0-3.0 kg/10 a (7/8). After harvesting (9/16), the number and weight of seeds of each plant body were measured. This time, empty seeds without kernels were excluded. The test zone was provided as 6 test zones under each condition.

| Compound | Number of ears per stock [1] | Number of rice grains per ear [1] | Weight of thousand grains [1] | Ripening rate [1] | Yield of rice per stock [1] | Weight of grains per stock (barley; ALA hydrochloride none, prohexadione calcium salt 3.5 g.a.i/10 a, 5 days before ear emergence) | Weight of grains per stock (barley; ALA hydrochloride none, prohexadione calcium salt 7 g.a.i/10 a, 5 days before ear emergence) | Weight of aerial part (Turnip (variety: Honami)) | Weight of terrestrial part (Turnip (variety: Honami)) | Fresh weight of hypocotyl [2] | Live weight of plant body [3] | Number of filled seeds [3] | Weight of filled seeds [3] | Weight of grains per stock (barley; ALA hydrochloride 0.15 g.a.i/10 a at the time 7 days before prohexadione calcium salt treatment (4/3), prohexadione calcium salt none) | Weight of grains per stock (barley; ALA hydrochloride 0.15 g.a.i/10 a at the time 28 days after prohexadione calcium salt treatment (5/8), prohexadione calcium salt none) | Weight of grains per stock (barley; ALA hydrochloride 0.15 g.a.i/10 a at the time simultaneous with prohexadione calcium salt treatment (4/10), prohexadione calcium salt none) |
| --- | --- | --- | --- | --- | --- | --- | --- | --- | --- | --- | --- | --- | --- | --- | --- | --- |
| CCC(=O)C1=C([O-])CC(C(=O)[O-])CC1=O.[Ca+2] (stereo not drawn) [Prohexadione calcium salt, calcium 3-oxido-5-oxo-4-propionyl-3-cyclohexene carboxylate] | 20.2 | 80.35 | 22.22 g | 86.09 | 31.0 g | 6.23 g | 6.60 g | 0.349 kg/stock | 0.641 kg/stock | 10.3 g | – | – | – | – | – | – |
| Cl.NCC(=O)CCC(=O)O [ALA hydrochloride, 5-aminolevulic acid hydrochloride] | 20.2 | 80.12 | 21.9 g | 88.71 | 31.4 g | – | – | 0.368 kg/stock | 0.725 kg/stock | 12.2 g | 1.68 kg/stock | 1348 seeds/stock | 120.5 g/stock | 6.59 g | 6.45 g | 6.83 g |
| CC(C)(C)[C@H](O)/C(=C\c1ccc(Cl)cc1)n1cncn1 [Uniconazole P, (E)-(S)-1-(4-chlorophenyl)-4,4-dimethyl-2-(1H-1,2,4-triazol-1-yl)pent-1-en-3-ol] | – | – | – | – | – | – | – | – | – | – | 1.96 kg/stock | 1377 seeds/stock | 126.3 g/stock | – | – | – |
